Source: patent US20080119462A1, “METHOD FOR TREATING VASCULAR HYPERPERMEABLE DISEASE” (Sucampo AG, priority 2003, published 2008)

Biological target: T1, Cloned human DAO (Homo sapiens, UniProt P19801)
T1 construct: made in house
T1 sequence (P19801 20-751): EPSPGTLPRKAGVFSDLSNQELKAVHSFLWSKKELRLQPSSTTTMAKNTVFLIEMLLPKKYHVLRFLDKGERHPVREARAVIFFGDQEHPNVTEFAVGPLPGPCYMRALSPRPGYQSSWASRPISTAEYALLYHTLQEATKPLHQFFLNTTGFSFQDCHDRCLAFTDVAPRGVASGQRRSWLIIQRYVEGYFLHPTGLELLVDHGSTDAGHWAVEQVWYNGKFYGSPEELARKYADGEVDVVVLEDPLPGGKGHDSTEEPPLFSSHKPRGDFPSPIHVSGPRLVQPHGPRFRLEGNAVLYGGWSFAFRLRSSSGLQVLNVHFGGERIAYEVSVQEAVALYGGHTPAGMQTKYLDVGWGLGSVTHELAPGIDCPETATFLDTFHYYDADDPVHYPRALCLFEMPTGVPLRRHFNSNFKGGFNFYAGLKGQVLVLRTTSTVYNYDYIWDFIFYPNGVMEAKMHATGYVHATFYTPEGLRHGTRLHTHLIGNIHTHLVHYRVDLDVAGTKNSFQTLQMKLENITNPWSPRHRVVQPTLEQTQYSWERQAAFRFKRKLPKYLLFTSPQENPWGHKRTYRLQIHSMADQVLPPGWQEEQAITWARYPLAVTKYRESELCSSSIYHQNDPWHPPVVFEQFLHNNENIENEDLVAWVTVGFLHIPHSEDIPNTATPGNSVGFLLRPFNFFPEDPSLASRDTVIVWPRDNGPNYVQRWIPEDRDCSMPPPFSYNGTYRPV
Assay: Diamine oxidase (DAO, histaminase) activity assay with 14C-putrescine
Assay type: biochemical
Method: VAP-1 enzyme (SSAO) activity in both human and rat plasma was determined by a radiochemical-enzyme assay using ^14C-benzylamine as artificial substrate. The enzyme suspension prepared from blood plasma was pre-incubated with Compound A in 96-well microplate at room temperature for 30 min. The enzyme suspension was then incubated with ^14C-benzylamine (2×10^−5 mol/l final concentration) in a final volume of 50 μl at 37° C. for 1 hour. The enzyme reaction was terminated by adding 2 mol/l (50 μl) citric acid. The oxidized products were directly extracted into a 200 μl toluene scintillator, and its radioactivity was measured by a scintillation spectrometer. Monoamine oxidase (MAO) and diamine oxidase (DAO, histaminase) activities were also determined by similar method using ^14C-phenylethylamine and ^14C-putrescine as substrate, respectively. Cloned DAO from cDNA libraries was used in human DAO assay. Inhibition activity was expressed as IC50 (μmol/l) value.

CC(=O)Nc1nc(CCc2ccc(NC(=N)N)cc2)cs1 [Compound A, N-{4-[2-(4-{[amino(imino)methyl]amino}phenyl)ethyl]-1,3-thiazol-2-yl}acetamide]
Inhibition of the enzyme activity of cloned DAO (in words): not | IC50 (14C-putrescine as substrate, read-out: Inhibitory effect (IC50 values) Cloned human DAO): > 100 µM
